According to ChEMBL document CHEMBL1201862, “PubChem BioAssay data set” (2004):
“And” between values parts separate entries of the source, which are not always exact repeats. Equal values may be shown once.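 How tested: cells in 96-well plates exposed to compound for 48 hours at five concentrations. GI50 is the concentration that inhibits growth by half.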 The source made the active and inactive calls. No stated cut-off is given here; in the data, active = GI50 up to about 1.1 µM and inactive = higher.

Tests used:
Experiment in all cases: growth of human tumour cells (NCI), 48 h
HCT-15 = tested on: HCT-15
MOLT-4 = tested on: MOLT-4
HL-60 = tested on: HL-60
NCI-H226 = tested on: NCI-H226
HCT-116 = tested on: HCT-116
SK-OV-3 = tested on: SK-OV-3
M14 = tested on: M14
HOP-92 = tested on: HOP-92
OVCAR-5 = tested on: OVCAR-5
OVCAR-3 = tested on: OVCAR-3
NCI/ADR-RES = tested on: NCI/ADR-RES
CCRF-CEM = tested on: CCRF-CEM
LOX IMVI = tested on: LOX IMVI
UACC-62 = tested on: UACC-62
SNB-19 = tested on: SNB-19
Malme-3M = tested on: Malme-3M
A549 = tested on: A549
SF-295 = tested on: SF-295
UO-31 = tested on: UO-31
SNB-75 = tested on: SNB-75

Measured: GI50

Cc1cccc2oc3c(c(=O)c12)CC(O)C(C)(C)O3 (stereo not given)
inactive: MOLT-4 38.5 µM | HL-60 23.9 µM | NCI-H226 > 100 µM | HCT-116 45.8 µM | SK-OV-3 > 100 µM | M14 > 100 µM | HOP-92 > 100 µM | OVCAR-5 > 100 µM | OVCAR-3 99.1 µM | NCI/ADR-RES 79.1 µM | CCRF-CEM 28.2 µM | LOX IMVI 86.5 µM | UACC-62 > 100 µM | SNB-19 > 100 µM | Malme-3M > 100 µM | A549 > 100 µM | SF-295 > 100 µM | UO-31 > 100 µM
> 100 µM: HCT-15

CC(=O)OC(/C=C/c1ccccc1)P1(=O)N(CC(C)(C)C)[C@@H]2CCCC[C@H]2N1CC(C)(C)C (stereo not given in full)
inactive: MOLT-4 3.63 µM and 3.83 µM | HL-60 5.37 µM and 5.71 µM | NCI-H226 6.87 µM and 10.9 µM | HCT-116 4.14 µM and 3.53 µM | SK-OV-3 15.2 µM and 8.71 µM | M14 5.9 µM and 5.24 µM | HOP-92 12 µM | OVCAR-5 10.7 µM and 9.86 µM | NCI/ADR-RES 5.89 µM and 5.11 µM | CCRF-CEM 4.81 µM and 4.38 µM | LOX IMVI 11.2 µM and 9.42 µM | UACC-62 9.2 µM and 8.99 µM | SNB-19 10.5 µM and 8.15 µM | Malme-3M 12.3 µM and 13.1 µM | A549 5.05 µM and 4.55 µM | SF-295 5.87 µM and 3.86 µM | UO-31 7.18 µM and 4.19 µM
6.75 µM and 4.97 µM: HCT-15

CC(C)(O)c1cc2c(cc1C(C)(C)O)-c1ccccc1-2
> 100 µM: HCT-15
inactive: MOLT-4 > 100 µM | HL-60 > 100 µM | SNB-75 29.2 µM | NCI-H226 > 100 µM | M14 > 100 µM | HOP-92 17.9 µM | OVCAR-5 > 100 µM | OVCAR-3 > 100 µM | NCI/ADR-RES > 100 µM | CCRF-CEM > 100 µM | LOX IMVI > 100 µM | UACC-62 36.2 µM | SNB-19 > 100 µM | Malme-3M > 100 µM | A549 > 100 µM | SF-295 67.1 µM

COc1ccc2c(CCN)c(C(=O)O)[nH]c2c1
inactive: HL-60 > 100 µM | SNB-75 > 100 µM | NCI-H226 > 100 µM | HCT-116 > 100 µM | SK-OV-3 > 100 µM | M14 > 100 µM | HOP-92 > 100 µM | OVCAR-5 > 100 µM | OVCAR-3 > 100 µM | NCI/ADR-RES > 100 µM | LOX IMVI > 100 µM | UACC-62 > 100 µM | SNB-19 > 100 µM | Malme-3M > 100 µM | A549 > 100 µM | SF-295 > 100 µM | UO-31 > 100 µM
> 100 µM: HCT-15
active: MOLT-4 1 µM

CC(=O)N(C)C(C(=O)N1CC(C)CC1C(=O)N(C)C1C(=O)NC(CC(C)C)C(=O)N2CC(C)CC2C(=O)NC(CC(C)C)C(=O)N(C)C(C(C)C)C(=O)N2CCCC2C(=O)N(C)C(CC(C)C)C(=O)NCC(=O)OC1C)C(C)C (stereo not given)
> 100 µM: HCT-15
inactive: MOLT-4 > 100 µM | HL-60 > 100 µM | SNB-75 > 100 µM | NCI-H226 > 100 µM | HCT-116 > 100 µM | SK-OV-3 > 100 µM | M14 > 100 µM | HOP-92 > 100 µM | OVCAR-5 > 100 µM | OVCAR-3 > 100 µM | NCI/ADR-RES > 100 µM | CCRF-CEM > 100 µM | LOX IMVI > 100 µM | UACC-62 > 100 µM | SNB-19 > 100 µM | A549 > 100 µM | SF-295 > 100 µM | UO-31 > 100 µM

O=C1c2cc3ccccc3cc2C2(c3ccc(Cl)cc3)N[C@H]3CCCC[C@@H]3N12 (stereo not given in full)
21.6 µM: HCT-15
inactive: MOLT-4 40.4 µM | HL-60 13.6 µM | SNB-75 16.5 µM | HCT-116 5.68 µM | SK-OV-3 14.6 µM | M14 2.59 µM | HOP-92 27.8 µM | OVCAR-5 21 µM | OVCAR-3 19.4 µM | NCI/ADR-RES 14.2 µM | CCRF-CEM 48 µM | LOX IMVI 19 µM | UACC-62 15 µM | SNB-19 13.7 µM | Malme-3M 15.1 µM | A549 9.62 µM | SF-295 13.8 µM | UO-31 18.3 µM

COc1ccc(NC=O)c(C(=O)CCNC(C)=O)c1
> 100 µM: HCT-15
inactive: MOLT-4 > 100 µM | HL-60 > 100 µM | SNB-75 > 100 µM | NCI-H226 > 100 µM | HCT-116 > 100 µM | SK-OV-3 > 100 µM | M14 > 100 µM | HOP-92 > 100 µM | OVCAR-5 > 100 µM | OVCAR-3 > 100 µM | NCI/ADR-RES > 100 µM | CCRF-CEM > 100 µM | LOX IMVI > 100 µM | UACC-62 > 100 µM | SNB-19 > 100 µM | A549 > 100 µM | SF-295 > 100 µM | UO-31 > 100 µM
